We go through 2 compounds from patent US11547652B2, “Combination products and cosmetic compositions for controlling skin disorders and skin aging that affect keratinocytes and/or fibroblasts and the dermis” (NUTRICOS Technologies, priority 2014, dated 2023).

The test system of assay [1] is NHEK cells (Normal Human Epidermal Keratinocytes). The experiment in a line: Hyaluronic acid production by NHEK cells (ELISA on supernatant). It is filed as cell-based. The note with it: 72 hours of cultivation, hyaluronic acid 40 to 6000 ng/ml, glucosamine sulfate 0.25 to 25 μg/ml, FIG. 1. As for the experimental part: Normal human epidermal keratinocytes were cultured at 37° C. under 5% CO2 in a medium keratinocyte-SFM culture, supplemented with epidermal growth factor (EGF; 0.25 ng/ml), a pituitary extract (25 μg/ml) and an antibiotic (gentamicin 25 μg/ml) in 96-well plates for 24 h without stimulation. Glucosamine and/or hyaluronic acid are then added to the cultivation medium alone or in combination at concentrations of 40 to 6000 ng/ml hyaluronic acid and 0.25 to 25 μg/ml to glucosamine sulfate. After 72 hours of cultivation under these conditions, the supernatant was collected to quantify the hyaluronic acid produced by the cells using an ELISA Duoset Hyaluronan kit marketed by the company R & D System (DY3614 reference).
In general terms: ELISA stands for enzyme-linked immunosorbent assay.

Assay [2] concerns NHDF cells (Normal Human Dermal Fibroblasts). Nature of the assay: Hyaluronic acid production by NHDF cells (ELISA on supernatant). The following applies: 72 hours, glucosamine 0.1 to 100 μg/ml, hyaluronic acid 40 to 6000 ng/ml, source of collagen and hyaluronic acid 4 to 4000 ng/ml, FIG. 2. It is filed as cell-based. As for the experimental part:
Normal human dermal fibroblasts (NHDF) were cultured at 37° C. under 5% CO2 in a DMEM culture medium supplemented with glutamine (2 mM); calf serum (1%), penicillin (50 U/ml) and streptomycin ([…]). Glucosamine (0.1 to 100 μg/ml) and/or hyaluronic acid (from 40 to 6000 ng/ml) and/or a source of collagen and hyaluronic acid (in a ratio of between 0.07% and 15%) at concentrations ranging from 4 to 4000 ng/ml were then added to the cultivation medium alone or in combination. After 72 hours of cultivation under these conditions, the supernatant was collected to quantify the hyaluronic acid produced by the cells using an ELISA Duoset Hyaluronan kit marketed by the company R & D System (DY3614 reference).

On to `N[C@H]1C(O)O[C@H](CO)[C@@H](O)[C@@H]1O.O=S(=O)(O)O` (stereo partly shown) [glucosamine sulfate], for which the “hyaluronic acid production by human keratinocytes in vitro” value in assay [1] is on record as “induction of hyaluronic acid production”. The “hyaluronic acid production by human fibroblasts in vitro” value in assay [2] is reported as “lack of stimulation”.

For the compound hyaluronic acid, the “hyaluronic acid production by human keratinocytes in vitro” value in assay [1] is recorded as “does not stimulate the synthesis of hyaluronic acid”. Moreover, in assay [2], the “hyaluronic acid production by human fibroblasts in vitro” value was “did not stimulate the synthesis of hyaluronic acid”.
